Measured values taken from publication PMC12480555 (Scientific Reports, 2025).

Legend:
CT26-induced tumors [1] = test: Tumor histology; conditions: tumor tissue, day 21
[2] = Blood parameters in colon cancer model
[3] = Kidney histology in colon cancer model; conditions: kidney tissue, day 21
CT26-induced tumors [4] = test: Colon cancer model, tumor weight and size after 21 days; conditions: intravenous every three days
MTT cytotoxicity assay = assay type: cell-based; conditions: human, HFF cells

In the case of `O=c1[nH]cc(F)c(=O)[nH]1` [Free 5FU, 5-Fluorouracil], the “Number of Apoptotic Cells (per field of view) ± Standard Deviation” value (CT26-induced tumors [1]) is reported as 8.0 ± 1.0 per field of view, the “Other Histopathology Changes” value (CT26-induced tumors [1]) is reported as “Mild necrotic changes and inflammation” and the “Percentage of Necrosis ± Standard Deviation” value (CT26-induced tumors [1]) is reported as 18.0 ± 4.0%. For the same molecule, the “Tumor Differentiation Grade (1 to 3) ± Standard Deviation” value (CT26-induced tumors [1]) was 2.0 ± 0.3, the “Red Blood Cell Count ± SD” value ([2]; Day 21) was 4.2 ± 0.3 ×10⁶ cells/µL and the “White Blood Cell Count ± SD” value ([2]; Day 21) was 10.0 ± 1.5 ×10³ cells/µL. The “Hemoglobin Level ± SD” value ([2]; Day 21, listed as 5-FU) was 9.0 ± 0.8 g/dL, the “Hemoglobin Level ± SD” value ([2]; Day 21, listed as free 5-FU) was 9.0 g/dL and the “Hemoglobin Level ± SD” value ([2]; Treatment start) was 12.8 ± 1.2 g/dL. The “Red Blood Cell Count ± SD” value ([2]; Treatment start) was 5.6 ± 0.5 ×10⁶ cells/µL, the “White Blood Cell Count ± SD” value ([2]; Treatment start) was 8.3 ± 1.1 ×10³ cells/µL and the “renal complications (kidney histology)” value [3] was “Most renal complications occurred in this group”. The “Mean tumor size ± standard deviation” value (CT26-induced tumors [4]) was 11.0 ± 2.0 mm, the “Mean tumor weight ± standard deviation” value (CT26-induced tumors [4]) was 0.98 ± 0.36 g and the viability at 24 h, 0.2 mg/mL (MTT cytotoxicity assay) was 99.5%. The viability at 24 h, 0.5 mg/mL (MTT cytotoxicity assay) was 87.9%, the viability at 24 h, 1 mg/mL (MTT cytotoxicity assay) was 85.9% and the viability at 24 h, 1.5 mg/mL (MTT cytotoxicity assay) was 75.9%. It also gave a viability at 24 h, 2 mg/mL (MTT cytotoxicity assay) of 75.1%, a viability at 48 h, 0.2 mg/mL (MTT cytotoxicity assay) of 104% and a viability at 48 h, 0.5 mg/mL (MTT cytotoxicity assay) of 94.1%. It also gave a viability at 48 h, 1 mg/mL (MTT cytotoxicity assay) of 79.4%, a viability at 48 h, 1.5 mg/mL (MTT cytotoxicity assay) of 74.7% and a viability at 48 h, 2 mg/mL (MTT cytotoxicity assay) of 65.1%.
